Measurements as given in ChEMBL document CHEMBL1121980, “beta-adrenergic blocking agents. 24. Heterocyclic substituted 1-(aryloxy)-3-[[(amido)alkyl]amino]propan-2-ols” (1982).

How the values were obtained:
Assay type in all cases: functional
Felis catus [1] = assay: In vivo beta adrenoceptor blocking potency was determined by inhibition of tachycardia in cat
Felis catus [2] = organism: Felis catus; assay: The compound was evaluated for inhibition of depressor response.; parameters: concentration or dose not given beside the values
Felis catus [3] = organism: Felis catus; assay: The compound was evaluated for inhibition of depressor response

Compound | ED50 (Felis catus [1]) | Inhibition (Felis catus [2]) | Inhibition (Felis catus [3])
N#Cc1ccccc1OCC(O)CNCCNC(=O)Cc1cc2ccccc2[nH]1 (configuration not stated) | 0.049 mg/kg | 6% | –
N#Cc1ccccc1OCC(O)CNCCNC(=O)c1ccco1 (configuration not stated) | 0.272 mg/kg | 28% | –
O=C(NCCNCC(O)COc1cccc2c1OCCO2)c1cccs1 (configuration not stated) | – | 40% | –
N#Cc1ccccc1OCC(O)CNCCNC(=O)Cc1csc(-c2ccc(Cl)cc2)n1 (configuration not stated) | 0.087 mg/kg | 0% | –
O=C(NCCNCC(O)COc1cccc2c1OCCO2)Nc1ccccc1 (configuration not stated) | 0.111 mg/kg | 0% | –
NC(=O)c1ccccc1OCC(O)CNCCNC(=O)c1cccs1 (configuration not stated) | 0.461 mg/kg | 0% | –
O=C(NCCNCC(O)COc1ccccc1)c1cccs1 (configuration not stated) | 0.104 mg/kg | 28% | –
CC(=O)Nc1ccc(OCC(O)CNC(C)C)cc1 (configuration not stated) [PRACTOLOL] | 0.167 mg/kg | – | 8%
CC(C)NCC(O)COc1cccc2ccccc12 (configuration not stated) [PROPRANOLOL] | 0.062 mg/kg | 85% | –
